According to ChEMBL document CHEMBL4316589, “Attachment of a 5-nitrofuroyl moiety to spirocyclic piperidines produces non-toxic nitrofurans that are efficacious in vitro against multidrug-resistant Mycobacterium tuberculosis” (Eur J Med Chem, 2019):
Values after ≈ are worked out from the molar mass of the structure shown.

What was measured:
[1] = tested on: Mycobacterium tuberculosis; assay: Antimycobacterial activity against drug-sensitive Mycobacterium tuberculosis H37Rv measured after 7 days by resazurin dye-based assay; format: functional; details: 168 h
Enterococcus faecium = assay: Antibacterial activity against Enterococcus faecium assessed as bacterial growth inhibition zone diameter at 5 ug after 18 hrs by Kirby-Bauer disk diffusion method; format: functional; details: read-out: DIZ
Staphylococcus aureus = assay: Antibacterial activity against Staphylococcus aureus assessed as bacterial growth inhibition zone diameter at 5 ug after 18 hrs by Kirby-Bauer disk diffusion method; format: functional; details: read-out: DIZ
Klebsiella pneumoniae = assay: Antibacterial activity against Klebsiella pneumoniae assessed as bacterial growth inhibition zone diameter at 5 ug after 18 hrs by Kirby-Bauer disk diffusion method; format: functional; details: read-out: DIZ
Acinetobacter baumannii = assay: Antibacterial activity against Acinetobacter baumannii assessed as bacterial growth inhibition zone diameter at 5 ug after 18 hrs by Kirby-Bauer disk diffusion method; format: functional; details: read-out: DIZ
Pseudomonas aeruginosa = assay: Antibacterial activity against Pseudomonas aeruginosa assessed as bacterial growth inhibition zone diameter at 5 ug after 18 hrs by Kirby-Bauer disk diffusion method; format: functional; details: read-out: DIZ
Klebsiella aerogenes = assay: Antibacterial activity against Enterobacter aerogenes assessed as bacterial growth inhibition zone diameter at 5 ug after 18 hrs by Kirby-Bauer disk diffusion method; format: functional; details: read-out: DIZ
ARPE-19 [2] = assay: Cytotoxicity against human ARPE19 cells assessed as effect on cell viability at 10 to 100 uM after 48 hrs in normoxic condition by MTT assay; format: cell-based; details: arpe-19, 48 h
[3] = Toxicity in po dosed C57BL6 mouse administered via metal gavage measured daily over 14 days; format: organism-based; details: in vivo
[4] = Toxicity in C57BL6 mouse assessed as mortality at 900 mg/kg, po administered via metal gavage measured daily over 14 days; format: organism-based; details: in vivo, 336 h
[5] = Toxicity in C57BL6 mouse assessed as mortality at 400 mg/kg, po administered via metal gavage measured daily over 14 days; format: organism-based; details: in vivo, 336 h
ARPE-19 [6] = assay: Cytotoxicity against human ARPE19 cells assessed as effect on cell viability at 100 uM after 48 hrs in normoxic condition by MTT assay; format: cell-based; details: arpe-19, 48 h

Question: For O=C(c1ccc([N+](=O)[O-])o1)N1CCC2(CC1)CC(N1CCOCC1)CCO2 (centres undefined), which MIC [1] is on record?
Answer: The MIC was greater than 100 µg/mL.

Question: With O=C(c1ccc([N+](=O)[O-])o1)N1CCC2(CC1)CC(Oc1ccncc1)CCO2 (centres undefined) as the compound, how does the MIC [1] read?
Answer: Its MIC is 25 µg/mL (≈ 64.5 µM).

Question: For CCOC1CCOC2(CCN(C(=O)c3ccc([N+](=O)[O-])o3)CC2)C1 (centres undefined), which MIC [1] is on record?
Answer: Its MIC is 50 µg/mL (≈ 148 µM).

Question: Which MIC [1] does the source give for O=C(c1ccc([N+](=O)[O-])o1)N1CCC2(CC1)CC(Cc1nc(-c3cccnc3)no1)CCO2 (centres undefined) here?
Answer: Its MIC is 1.6 µg/mL (≈ 3.53 µM).

Question: What about the zone of inhibition at 5 µg/disc (Enterococcus faecium) of the same compound?
Answer: The zone of inhibition at 5 µg/disc was 0 mm.

Question: What about the zone of inhibition at 5 µg/disc (Staphylococcus aureus) of the same compound?
Answer: Its zone of inhibition at 5 µg/disc is 0 mm.

Question: What about the zone of inhibition at 5 µg/disc (Klebsiella pneumoniae) of the same compound?
Answer: Its zone of inhibition at 5 µg/disc is 0 mm.

Question: What about the zone of inhibition at 5 µg/disc (Acinetobacter baumannii) of the same compound?
Answer: Its zone of inhibition at 5 µg/disc is 0 mm.

Question: And the zone of inhibition at 5 µg/disc (Pseudomonas aeruginosa)?
Answer: Its zone of inhibition at 5 µg/disc is 0 mm.

Question: And the zone of inhibition at 5 µg/disc (Klebsiella aerogenes)?
Answer: Its zone of inhibition at 5 µg/disc is 0 mm.

Question: What about the Activity (ARPE-19 [2]) of the same compound?
Answer: The Activity was “Non-Toxic”.

Question: What about the LD50 at 336 h ([3]; C57BL6, mouse) of the same compound?
Answer: The LD50 at 336 h was 617 mg/kg.

Question: What about the LD16 ([3]; mouse, 336 h) of the same compound?
Answer: The LD16 was 198 mg/kg.

Question: And the LD84 ([3]; mouse, 336 h)?
Answer: Its LD84 is 787.5 mg/kg.

Question: What about the LD100 ([3]; mouse, 336 h) of the same compound?
Answer: The LD100 was 900 mg/kg.

Question: What about the Activity [4] of the same compound?
Answer: Its Activity is “Toxic”.

Question: And the Activity [5]?
Answer: The Activity was “Non-Toxic”.

Question: Which MIC [1] does the source give for O=C(c1ccc([N+](=O)[O-])o1)N1CCC2(CC1)CC(NS(=O)(=O)c1ccc(F)cc1)CCO2 (centres undefined) here?
Answer: Its MIC is 50 µg/mL (≈ 107 µM).

Question: For O=C(c1ccc([N+](=O)[O-])o1)N1CCC2(CCCCO2)CC1, which MIC [1] is on record?
Answer: The MIC was 3.1 µg/mL (≈ 10.5 µM).

Question: What about the Activity (ARPE-19 [2]) of the same compound?
Answer: Its Activity is “Non-Toxic”.

Question: For O=C(c1ccc([N+](=O)[O-])o1)N1CCC2(CC1)CC(Cc1ccc(F)cc1)CCO2 (centres undefined), which MIC [1] is on record?
Answer: Its MIC is 12.5 µg/mL (≈ 31.1 µM).

Question: With COc1ccc(S(=O)(=O)NC2CCOC3(CCN(C(=O)c4ccc([N+](=O)[O-])o4)CC3)C2)cc1 (centres undefined) as the compound, how does the MIC [1] read?
Answer: Its MIC is 50 µg/mL (≈ 104 µM).

Question: Which MIC [1] does the source give for COc1ccc(CC2CCOC3(CCN(C(=O)c4ccc([N+](=O)[O-])o4)CC3)C2)cc1 (centres undefined) here?
Answer: Its MIC is 3.1 µg/mL (≈ 7.48 µM).

Question: And the Activity (ARPE-19 [6])?
Answer: Its Activity is “Toxic”.

Question: Which MIC [1] does the source give for Cl.NC1CCOC2(CCN(C(=O)c3ccc([N+](=O)[O-])o3)CC2)C1 (centres undefined) here?
Answer: The MIC was greater than 100 µg/mL.

Question: For CN(Cc1ccccc1)C(=O)CC1CCOC2(CCN(C(=O)c3ccc([N+](=O)[O-])o3)CC2)C1 (centres undefined), which MIC [1] is on record?
Answer: Its MIC is 12.5 µg/mL (≈ 27.4 µM).

Question: For O=C(c1ccc([N+](=O)[O-])o1)N1CCC2(CC1)CC(OCC1CC1)CCO2 (centres undefined), which MIC [1] is on record?
Answer: Its MIC is 25 µg/mL (≈ 68.6 µM).

Question: With CNC(=O)CC1CCOC2(CCN(C(=O)c3ccc([N+](=O)[O-])o3)CC2)C1 (centres undefined) as the compound, how does the MIC [1] read?
Answer: Its MIC is greater than 100 µg/mL.

Question: Which MIC [1] does the source give for O=C(c1ccc([N+](=O)[O-])o1)N1CCC2(CC1)CC(NS(=O)(=O)c1ccccc1F)CCO2 (centres undefined) here?
Answer: Its MIC is 50 µg/mL (≈ 107 µM).

Question: Which results are given for O=C(c1ccc([N+](=O)[O-])o1)N1CCC2(CC1)CC(OCc1ccc(F)cc1)CCO2 (centres undefined)?
Answer: MIC [1]: 3.1 µg/mL (≈ 7.41 µM); Activity (ARPE-19 [2]): Non-Toxic

Question: Which MIC [1] does the source give for Cc1cccc(S(=O)(=O)NC2CCOC3(CCN(C(=O)c4ccc([N+](=O)[O-])o4)CC3)C2)c1 (centres undefined) here?
Answer: Its MIC is 50 µg/mL (≈ 108 µM).

Question: Which MIC [1] does the source give for Cc1ccc(CC2CCOC3(CCN(C(=O)c4ccc([N+](=O)[O-])o4)CC3)C2)cc1 (centres undefined) here?
Answer: The MIC was 3.1 µg/mL (≈ 7.78 µM).

Question: And the Activity (ARPE-19 [6])?
Answer: The Activity was “Toxic”.

Question: Which MIC [1] does the source give for O=C(c1ccc([N+](=O)[O-])o1)N1CCC2(CC1)CC(NS(=O)(=O)c1ccc(Br)cc1)CCO2 (centres undefined) here?
Answer: Its MIC is 25 µg/mL (≈ 47.3 µM).

Question: Which zone of inhibition at 5 µg/disc (Enterococcus faecium) does the source give for O=C(O)c1cn(C2CC2)c2cc(N3CCNCC3)c(F)cc2c1=O [CIPROFLOXACIN] here?
Answer: Its zone of inhibition at 5 µg/disc is 23 mm.

Question: What about the zone of inhibition at 5 µg/disc (Staphylococcus aureus) of the same compound?
Answer: Its zone of inhibition at 5 µg/disc is 23 mm.

Question: And the zone of inhibition at 5 µg/disc (Klebsiella pneumoniae)?
Answer: The zone of inhibition at 5 µg/disc was 25 mm.

Question: And the zone of inhibition at 5 µg/disc (Acinetobacter baumannii)?
Answer: The zone of inhibition at 5 µg/disc was 30 mm.

Question: What about the zone of inhibition at 5 µg/disc (Pseudomonas aeruginosa) of the same compound?
Answer: The zone of inhibition at 5 µg/disc was 23 mm.

Question: And the zone of inhibition at 5 µg/disc (Klebsiella aerogenes)?
Answer: The zone of inhibition at 5 µg/disc was 25 mm.

Question: Which results are given for O=C(c1ccc([N+](=O)[O-])o1)N1CCC2(CC1)CC(Cc1nc(C3CC3)no1)CCO2 (centres undefined)?
Answer: MIC [1]: 3.1 µg/mL (≈ 7.44 µM); Activity (ARPE-19 [2]): Non-Toxic

Question: Which MIC [1] does the source give for CS(=O)(=O)NC1CCOC2(CCN(C(=O)c3ccc([N+](=O)[O-])o3)CC2)C1 (centres undefined) here?
Answer: The MIC was greater than 100 µg/mL.

Question: With COCCc1noc(CC2CCOC3(CCN(C(=O)c4ccc([N+](=O)[O-])o4)CC3)C2)n1 (centres undefined) as the compound, how does the MIC [1] read?
Answer: The MIC was 6.2 µg/mL (≈ 14.3 µM).

Question: And the Activity (ARPE-19 [2])?
Answer: Its Activity is “Non-Toxic”.

Question: For O=C(c1ccc([N+](=O)[O-])o1)N1CCC2(CC1)CC(NS(=O)(=O)c1ccc(F)c(Cl)c1)CCO2 (centres undefined), which MIC [1] is on record?
Answer: The MIC was 25 µg/mL (≈ 49.8 µM).

Question: For O=C(c1ccc([N+](=O)[O-])o1)N1CCC2(CC1)CC(NS(=O)(=O)c1ccccc1)CCO2 (centres undefined), which MIC [1] is on record?
Answer: Its MIC is 50 µg/mL (≈ 111 µM).

Question: With CC(C)(C)OC(=O)NC1CCOC2(CCN(C(=O)c3ccc([N+](=O)[O-])o3)CC2)C1 (centres undefined) as the compound, how does the MIC [1] read?
Answer: The MIC was 25 µg/mL (≈ 61.1 µM).
